The values that follow come from publication PMC8398714, “Synthesis and Evaluation of Biological Activities of Bis(spiropyrazolone)cyclopropanes: A Potential Application against Leishmaniasis” (Molecules, 2021).

The subject of one experiment is MCF-7. Kind of experiment: MTS cell viability assay on MCF-7 cells. The format is cell-based. The settings on record: Homo sapiens, MCF7, 48 h, Dox 1 µM, mean ± SEM, NA = no activity, read-out: Percentage (%) of inhibition, MCF-7. The protocol: (§1) Five tumor human cancer cell lines—cerebral astrocytoma (D-384), grade IV prostatic adenocarcinoma (PC-3), mammary adenocarcinoma (MCF-7), human colon carcinoma (RKO) and lung carcinoma (A-549)—along with one immortalized hamster cell line (CHO K-1) were used. The cells PC-3, MCF-7 and RKO were cultured in RPMI-1640, D-384 on DMEM and CHO K-1 on HAM F-12 medium supplemented with 10% fetal bovine serum (FBS, Invitrogen, Karlsruhe, Germany), 1% antibiotic-antimitotic solution (100 units/mL penicillin G, 100 µg/mL streptomycin, and 0.25 µg/mL amphotericin B, Gibco, Grand Island, NY, USA), and 1% L-glutamine (2 mM, Gibco). The cells were incubated at 37 °C in a 5% CO2 atmosphere. The viable cells were counted using the trypan blue exclusion method in a hemocytometer.
(§2) The MTS (5-[3-(carboxymethoxy)phenyl]-3-(4,5-dimethyl-2-thiazolyl)-2-(4-sulfo- phenyl)-2H-tetrazolium inner salt) cell viability assay was used to assess the inhibitory effects of the extracts on the survival of human cancer cell lines. A total of 3–5 × 10^3 cells/well were seeded into 96-well plates and were allowed to adhere for 24 h. […] Each concentration/assay was performed three times. Dimethyl sulfoxide (DMSO) was used as a negative control at a final concentration of 0.1% v/v, and 1 µM Doxorubicin was used as a positive control. The cells were incubated with the treatments for 48 h, after which 20 µL MTS (5 mg/mL, Aqueous One Solution Reagent, Gibco) was added and further incubated for 4 h at 37 °C. The absorbance was measured at 570 nm. The data obtained with cells treated with DMSO were defined to represent 100% viability.

The subject of a further experiment is PC-3. Kind of experiment: MTS cell viability assay on PC-3 cells. The format is cell-based. The following applies: Homo sapiens, 48 h; for inhibition at 100 µM: Dox 1 µM, mean ± SEM, NA = no activity, read-out: Percentage (%) of inhibition, PC-3. As for the experimental part:
as §1, §2
For orientation: Tetrazolium dyes change colour on reduction, which living cells bring about.

Experiment [1] relates to Leishmania mexicana cells. Kind of experiment: Comet assay of Leishmania mexicana cells. The format is cell-based. The arrangement: Comet tail length, mean (vary) / Comet tail length, median (Q50): unit not given here. The settings on record: L. mexicana, 24 h at MIC; for Comet tail length, mean (vary) / Comet tail length, median (Q50): MMS 0.011%, Kruskal-Wallis $means; for Genotoxic effect (DNA breaks) in comet assay: in words. As for the experimental part: We quantified DNA breaks by a comet assay to determine if these compounds are genotoxic. Here, L. mexicana cells were exposed for 24 h to MIC concentrations previously determined (see Materials and Methods Section) for each compound. Figure 1 represents the measurements obtained for tail length. All compounds generated DNA breaks expect 4s. […] Samples with DMSO and MMS (0.011%) were included as controls. Some representative pictures are shown at Figure S4. The effect of 4p could not be determined because the cells appear to be very damaged. The data was subjected via a Kruskal–Wallis one-way ANOVA (Statistical Analyses S2). […] These observations support a mechanism of action through the generation of DNA damage.
For leishmania, a method previously described for yeast was adapted. Briefly, after incubating the cells in presence of the compounds for 24 h, cells were collected and washed with buffer S (1 M sorbitol, 25 mM KH2PO4 in ultrapure water and adjust to pH 6.5 with NaOH). The pellet was resuspended in 400 µL of 1.5% LMA and 40 µL was spread (second layer) onto previously agarose-coated slides (first layer).
Slides were immersed in cold lysis buffer (30 mM NaOH, 1 M NaCl, 0.05 % (w/v) lauroylsarcosine, 50 mM EDTA, and 10 mM Tris–HCl, pH 10) for 25 min and then in cold electrophoresis alkaline buffer (30 mM NaOH, 10 mM EDTA, and 10 mM Tris–HCl, pH 10). They were then subjected to electrophoresis at 26V and 300 mA. Slides were immersed in neutralization buffer (10 mM Tris–HCl, pH 7.4; prepared in advance and stored at 4 °C) for 10 min at room temperature. The cells were then treated with proteinase K (20 min, 37 °C in humid chamber), followed by a new neutralization step. To dehydrate the slides, they were immersed in EtOH 90% and EtOH absolute for 10 min each. Finally, the slides were stained with Sybr Gold 1X.
The DNA migration was analyzed using a LEICA microscope with fluorescence (40×) by scoring 100 cells per slide in duplicate. The tail moment parameter was then analyzed by the Comet Score software.

The subject of a further experiment is CHO-K1. Kind of experiment: MTS cell viability assay on immortalized CHO-K1 cells. The format is cell-based, hamster. The settings on record: 48 h, Dox 1 µM, mean ± SEM, NA = no activity, read-out: Percentage (%) of inhibition, CHO-K1. The protocol: as §1, §2
Experiment [2] has as its system promastigotes of Leishmania mexicana. The experiment is described as follows: Leishmanicidal activity, MTT assay on promastigotes. The format is cell-based. The settings on record: for SI (Selectivity Index) = Citotoxic activity/Leishmanicidal activity: CC50 RAW / IC50 L. mexicana; for IC50: Leishmania mexicana. The protocol:
The leishmanicidal activity of all compounds was evaluated by measuring promastigotes’ mitochondrial activity using MTT colorimetric assay as described previously. In this study, promastigotes from Leishmania mexicana were used. The species were confirmed by amplifying and sequencing cytochrome b gene. Promastigotes were cultured at 25 °C in Schneider’s Drosophila Medium (Gibco, Invitrogen, Carlsbad, CA, USA) supplemented with 10% fetal bovine serum (Eurobio, Les Ulis, France). The medium was renewed every third day. Parasite density was determined by counting the cells using a Neubauer chamber.
Into each well of a 96-well plate were dispensed 1 × 10^6 parasites/well. A stock solution of the compounds was prepared in DMSO (Sigma Aldrich, Saint Louis, MO, USA), and serial dilutions were added to the parasite suspension, leading to concentrations ranging from 100 to 0.001 µM, keeping the solvent concentration at 0.5%. The final volume was 200 µL for each well and triplicate conditions were carried out. Amphotericin B (Gibco) treatment (1 µM) untreated parasites and DMSO 0.5% were used as positive and negative controls, respectively. After exposure to the compounds for 48 h in culture medium, 20 µL of a solution of 5 mg/mL MTT dissolved in PBS were added to each well. The plate was incubated at 25 °C for 2 h in darkness. The plate was then centrifuged at 4400 rpm for 10 min and the culture medium was then aspirated; 50 µL of DMSO were added into each well to solubilize the formazan crystals and the plate was shaken for 5 min and then it was measured by recording changes in absorbance at 570 nm using a microplate reader Cytation 5 (BioTek) spectrophotometer. A reference wavelength of 630 nm was used as background subtraction. Optical densities were analyzed because the quantity of formazan is directly proportional to the number of viable parasites. Data were analyzed with the statistical software GraphPad Prism 7.02 (GraphPad Software, Corp.).

Experiment [3] is described as follows: MTS cell viability assay on A-549 cells. The format is cell-based. The following applies: Homo sapiens; 48 h, 15-150 µM, mean ± SEM of triplicates.
[4] abbreviates: read-out: IC50 original values, x.1 (Mean).
Where [5] appears, read: L. mexicana promastigotes, 48 h, MTT, read-out: Leishmanicidal Activity IC50.

Entries after “also recorded” stand apart in the source; their conditions may differ. Like-named read-outs stand apart in the source and are kept apart here.

Regarding `CC1=NN(c2ccccc2)C(=O)[C@@]12C(c1ccccc1)[C@@]21C(=O)N(c2ccccc2)N=C1C` (relative stereo) [4b, (5R*,6R*)-4,10-Dimethyl-2,8,11-triphenyl-2,3,8,9-tetraazadispiro[4.0.4.1]undeca-3,9-diene-1,7-dione], the results for the inhibition at 100 µM in the experiment on MCF-7, with PC-3 and with CHO-K1 were 7.87 ± 2.92%, 17.6 ± 2.83% and 5.76 ± 3.08%, respectively. In addition, in experiment [1], the “Comet tail length, mean (vary)” value is recorded as 50400000. Besides, in experiment [1], the “Comet tail length, median (Q50)” value turned out to be 55000000. For the same molecule, the “SI (Selectivity Index) = Citotoxic activity/Leishmanicidal activity” value in experiment [2] amounted to 21.3. The IC50 – broadly, the concentration needed to halve the response being measured – in experiment [2] (setting [4]) turned out to be 158 nM; in experiment [2] (setting [5]) it was 160 nM.

Take `CC1=NN(c2ccccc2)C(=O)[C@@]12C(c1ccc([N+](=O)[O-])cc1)[C@@]21C(=O)N(c2ccccc2)N=C1C` (relative stereo) [4k, (5R*,6R*)-11-(4-Nitrophenyl)-4,10-dimethyl-2,8-diphenyl-2,3,8,9-tetraazadispiro[4.0.4.1]undeca-3,9-diene-1,7-dione]: the IC50 in experiment [3] was 114000 ± 6370 nM; with PC-3 (15-150 µM, mean ± SEM of triplicates) it was 83180 ± 450 nM; in experiment [2] (setting [4]), 295 nM; in experiment [2] (setting [5]), 300 ± 90 nM. The inhibition (as a rule, the relative decrease from the control value, in per cent) at 100 µM turned out to be 43 ± 3.46% in the experiment with MCF-7 and 46.7 ± 3.78% with PC-3. For the same molecule, in experiment [1], the “Genotoxic effect (DNA breaks) in comet assay” value (“Genotoxic effect (DNA breaks)” for short) is “biggest genotoxic effects; also recorded: strongest effects”. Besides, the “Comet tail length, mean (vary)” value in experiment [1] is listed as 142780000. Moreover, in experiment [1], the “Comet tail length, median (Q50)” value stood at 128000000. Also, the “SI (Selectivity Index) = Citotoxic activity/Leishmanicidal activity” value in experiment [2] amounted to 11.0.

Turning to `CC1=NN(c2ccccc2)C(=O)[C@@]12C(c1ccccc1[N+](=O)[O-])[C@@]21C(=O)N(c2ccccc2)N=C1C` (relative stereo) [4c, (5R*,6R*)-11-(2-Nitrophenyl)-4,10-dimethyl-2,8-diphenyl-2,3,8,9-tetraazadispiro[4.0.4.1]undeca-3,9-diene-1,7-dione], the inhibition at 100 µM in the experiment with MCF-7 stood at 16.7 ± 5.36%; with PC-3, 11 ± 3.5%; in the experiment on CHO-K1 it was 2.62 ± 2.2%. In addition, the “Comet tail length, mean (vary)” value in experiment [1] is given as 70710000. For the same molecule, in experiment [1], the “Comet tail length, median (Q50)” value came to 72500000. Besides, in experiment [2], the “SI (Selectivity Index) = Citotoxic activity/Leishmanicidal activity” value was found to be 15.3. Also, the IC50 turned out to be 150 nM in experiment [2] (setting [4]) and 150 ± 40 nM in experiment [2] (setting [5]).

As for `CC1=NN(c2ccccc2)C(=O)[C@@]12C(c1cccc(F)c1)[C@@]21C(=O)N(c2ccccc2)N=C1C` (relative stereo) [4t, (5R*,6R*)-11-(3-Fluorophenyl)-4,10-dimethyl-2,8-diphenyl-2,3,8,9-tetraazadispiro[4.0.4.1]undeca-3,9-diene-1,7-dione], the inhibition at 100 µM was 31.4 ± 3.65% with MCF-7, 13.8 ± 2.87% with PC-3 and 5.08 ± 2.84% in the experiment with CHO-K1. Besides, the “Genotoxic effect (DNA breaks)” value in experiment [1] is given as “biggest genotoxic effects”. The “Comet tail length, mean (vary)” value in experiment [1] is 124410000. Moreover, the “Comet tail length, median (Q50)” value in experiment [1] was 116000000. Further, in experiment [2], the “SI (Selectivity Index) = Citotoxic activity/Leishmanicidal activity” value was determined as 12.3. The results for the IC50 in experiment [2] (setting [4]) and in experiment [2] (setting [5]) were 216 nM and 220 ± 50 nM, respectively.

Regarding `COc1ccccc1C1[C@@]2(C(=O)N(c3ccccc3)N=C2C)[C@]12C(=O)N(c1ccccc1)N=C2C` (relative stereo) [4f, (5R*,6R*)-11-(2-Methoxyphenyl)-4,10-dimethyl-2,8-diphenyl-2,3,8,9-tetraazadispiro[4.0.4.1]undeca-3,9-diene-1,7-dione], the inhibition at 100 µM with PC-3 is 28.3 ± 2.56%; in the experiment with CHO-K1 it was 2.79 ± 1.49%. For the same molecule, in experiment [1], the “Comet tail length, mean (vary)” value was 75100000. Besides, the “Comet tail length, median (Q50)” value in experiment [1] is given as 80500000. The “SI (Selectivity Index) = Citotoxic activity/Leishmanicidal activity” value in experiment [2] is given as 5.7. For the same molecule, the IC50 in experiment [2] (setting [4]) came to 2230 nM; in experiment [2] (setting [5]), 2230 ± 70 nM.

For `COc1ccc(C2[C@@]3(C(=O)N(c4ccccc4)N=C3C)[C@]23C(=O)N(c2ccccc2)N=C3C)cc1` (relative stereo) [4e, (5R*,6R*)-11-(4-Methoxyphenyl)-4,10-dimethyl-2,8-diphenyl-2,3,8,9-tetraazadispiro[4.0.4.1]undeca-3,9-diene-1,7-dione], the inhibition at 100 µM turned out to be 4.47 ± 3.48% with MCF-7 and 17.9 ± 3.4% in the experiment with PC-3. Further, the “Comet tail length, mean (vary)” value in experiment [1] turned out to be 65120000. For the same molecule, in experiment [1], the “Comet tail length, median (Q50)” value was found to be 64500000. Further, in experiment [2], the “SI (Selectivity Index) = Citotoxic activity/Leishmanicidal activity” value is 4.9. The IC50 amounted to 1480 nM in experiment [2] (setting [4]) and 1480 ± 250 nM in experiment [2] (setting [5]).

For the molecule `CSc1ccc(C2[C@]3(C(=O)N(c4ccccc4)N=C3C)[C@@]23C(=O)N(c2ccccc2)N=C3C)cc1` (relative stereo) [4u, (5R*,6R*)-11-(4-Thiomethylphenyl)-4,10-dimethyl-2,8-diphenyl-2,3,8,9-tetraazadispiro[4.0.4.1]undeca-3,9-diene-1,7-dione], the inhibition at 100 µM with MCF-7 turned out to be 19.5 ± 2.96%; in the experiment with PC-3 it was 38.7 ± 3.77%; in the experiment on CHO-K1 it was 5.76 ± 3.65%. In addition, the “Genotoxic effect (DNA breaks)” value in experiment [1] is given as “highest genotoxic activity; also recorded: strongest effects”. In addition, in experiment [1], the “Comet tail length, mean (vary)” value is recorded as 179560000. Also, the “Comet tail length, median (Q50)” value in experiment [1] amounted to 177500000. In addition, the “SI (Selectivity Index) = Citotoxic activity/Leishmanicidal activity” value in experiment [2] was found to be 22.1. Also, the figures for the IC50 in experiment [2] (setting [4]) and in experiment [2] (setting [5]) were 417 nM and 420 ± 250 nM, respectively.
